The results in this text go back to patent US20230255943A1, “MMP-9 AND MMP-12 INHIBITION FOR TREATING SPINAL CORD INJURY OR RELATED INJURY TO NEUROLOGICAL TISSUE” (The University of Birmingham, priority 2020, published 2023).

Each structure is given as a SMILES string. “And” between values parts separate entries of the source, which are not always exact repeats. Identical values can stand only once. Counter-ions that a name gives are not always drawn.

The target of one assay is rat MMP-12 (Rattus norvegicus, UniProt Q63341). Kind of assay: Inhibition of rat MMP-12. The assay is classed as biochemical.
A further assay concerns the target human MMP-12 (Homo sapiens, UniProt P39900). The experiment in a line: Inhibition of human MMP-12 (IC50). Type of assay: biochemical.
The target of another assay is human MMP-9 (Homo sapiens, UniProt P14780). The experiment in a line: Inhibition of human MMP-9 (IC50). Type of assay: biochemical.
Another assay relates to DC injury. Kind of assay: Example 2: spinal cord water content as measure of injury-induced oedema. The settings on record: in vivo. On the procedure: The lesion site+3 mm either side for mice and the lesion site+5 mm either side for the rat DC model were dissected out and the water content of the spinal cord (as a measure of oedema) was determined at 3 days after DC and CC SCI, as described previously (S. Li, C. H. Tator, Effects of MK801 on evoked potentials, spinal cord blood flow and cord edema in acute spinal cord injury in rats. Spinal Cord 37, 820-832 (1999)). Spinal cords containing the lesion site were weighed on aluminium foil, dried at 105° C. for 24 hr, and re-weighed. The percent water content was calculated as: water content (%)=[(wet weight-dry weight)/wet weight]×100%.
Using similar techniques to those described in Example 1, the water content in the spinal cord as a measure of injury-induced oedema was determined for both AZD1236 & AZD3342 (see FIG. 20).

In assay [1] the test system is LPS-stimulated primary microglia. Kind of assay: LPS-induced cytokine production by primary microglia (ELISA). Type of assay: cell-based, mouse. The conditions noted are these: LPS 10 ng/ml, 24 h. How it is done:
Primary mouse microglia from 6-8-week-old C57BL/6 mouse brains were prepared according to a previously described protocol (Moussaud S, Draheim H J. A new method to isolate microglia from adult mice and culture them for an extended period of time. J Neurosci Methods 2010; 187(2): 243-53). Briefly, the meninges of brains were dissected out, finely minced enzymatically digested using 20 units/ml Papain (all from Sigma). After incubation for 90 min at 37° C., the suspension was centrifuged at 200 g for 7 min and the pellet resuspended in 0.5 mg/ml DNase I (Roche, Manheim, Germany) and triturated with fire-polished Pasteur pipettes of decreasing diameters. The homogenate was then filtered through a 70 μm cell strainer (Beckton Dickinson, Watford, UK), and centrifuged through a Percoll (GE Healthcare, Amersham, UK) gradient. Finally, the cell suspension was resuspended in DMEM/F12 medium supplemented with 10% FBS (all from Invitrogen) and 5 ng/ml of granulocyte colony and macrophage stimulating factor (GM-CSF) (#415-ML, R&D Systems. Watford, UK), plated out in T75 cell culture flasks (Beckton Dickinson) precoated with poly-L-lysine, and maintained at 37° C. and 5% CO2 for approximately 2 weeks. When the cells become confluent, microglia detach and migrate to the medium-air interface, floating and proliferating. The supernatant of the flask was then collected without prior shaking to remove the microglia growing on a mixed glial culture base and centrifuged at 200 g for 7 min. The purity of microglia was determined from each flask by immunocytochemistry for CD11b and confirmed as 95% pure. Before each experiment, microglia were cultured in DMEM/F12 without GM-CSF for at least 3 d.
Microglia were used for all experiments with an in vitro age between 15-20 d in vitro (DIV) and were seeded on glass coverslips in 24-well plates at a density of 3×10^4 cells/well. Microglia were exposed to serum-free media for 24 h before exposing the cells to different concentrations of lipopolyscaccharide (LPS) in preliminary experiments to determine optimal concentrations required to maximally activate our primary microglial cultures. This was determined as 10 ng/ml. For the microglial activation assay, cells were exposed to serum-free medium for 24 h before being exposed to LPS, with or without different concentrations of AZD1236, GM6001, SD2590 and MMP-9 Inhibitor I (all used at 10-500 ng/ml) for a further 24 h. Cell culture supernatant was then collected, centrifuged to remove cell debris and subjected to ELISA to determine the concentrations of TNF-α, IL-1β and IL-6. Experiments were performed in triplicate wells and repeated on 3 independent occasions (n=9 wells/treatment).
TNF-α (#MTA00B), IL-1β (#MLBOOC) and IL-6 (#M6000B) were determined using commercially available kits from R&D Systems, following the manufacturer's instructions.

The target in another assay is rat MMP-9 (Rattus norvegicus, UniProt P50282). The experiment in a line: Inhibition of rat MMP-9. Type of assay: biochemical.
Assay [2] concerns mice with DC crush injury. The experiment in a line: Horizontal ladder test (locomotor function) after DC injury in mice. Type of assay: in vivo, mouse. How it is done:
Functional testing after DC lesion and treatment was carried out as described previously (N. D. Fagoe, C. L. Attwell, R. Eggers, L. Tuinenbreijer, D. Kouwenhoven, J. Verhaagen, M. R. Mason, Evaluation of Five Tests for Sensitivity to Functional Deficits following Cervical or Thoracic Dorsal Column Transection in the Rat. PLoS One 11, e0150141 (2016)).
Briefly, animals (n=18/group) were first trained to master traversing a horizontal ladder for 1 w before functional testing. Baseline parameters were established by performing tests at 2-3d before injury. Animals were then tested at 2d, 1 w, 2 w, 3 w, 4 w, 5 w and 6 w after DC injury+treatment. Experiments were performed by an observer masked to the treatment conditions in the same order and time of day with each test performed for 3 individual trials.
Horizontal ladder test: This tests the animals locomotor function and is performed on a 0.9-meter-long horizontal ladder with a diameter of 15.5 cm and randomly adjusted rungs with variable gaps of 3.5-5.0 cm. Animals were assessed traversing the ladder and the left and right rear paw slips were recorded along with the total number of steps and the mean error rate as: the number of slips/total number of steps.

In another assay the target is T1, MMP-9 (Rattus norvegicus, UniProt P50282).
T1 construct: from tissue; host or cells: Sprague-Dawley rat spinal cord lesion site
The experiment in a line: MMP-9 activity after DC injury in rats. Type of assay: in vivo. The settings on record: oral. How it is done:
The efficacy of oral AZD3342 in the DC injury model in adult Sprague-Dawley rat was also assessed. Animals were divided into 6 groups: (1), Sham (control); (2), DC crush injury+Vehicle; (3), DC crush injury+15 mg/kg AZD3342; (4), DC crush injury+75 mg/kg […]; (5), DC crush injury+375 mg/kg AZD3342; and (6), DC crush injury+Melatonin. Animals were dosed twice daily with oral AZD3342 or vehicle with the experimenters masked to the treatment conditions. These experiments were performed with n=6 rats/group and repeated on 2-3 independent occasions (total n=12-18 rats/group/test).
The lesion site+3 mm either side for mouse (DC and CC SCI) and lesion site+5 mm either side for rat was dissected (n=6 mice/rats/group, 2 independent repeats, total n=12 mice/rats/group) and rapidly frozen in liquid N2 and stored at −80° C. until required. The enzymatic activity of MMP-9 and MMP-12 was determined in 96-well plates using the SensoLyte 520 MMP-9 and MMP-12 fluorimetric assay kit, according to the manufacturer's instructions (AnaSpec, Fremont, Calif., USA). Fluorescence intensity was measured using a Synergy H1 microplate reader (BioTek UK, Swindon, UK) at Ex/Em=490/520 nm.

Sequence of human MMP-12 (P39900 106-470): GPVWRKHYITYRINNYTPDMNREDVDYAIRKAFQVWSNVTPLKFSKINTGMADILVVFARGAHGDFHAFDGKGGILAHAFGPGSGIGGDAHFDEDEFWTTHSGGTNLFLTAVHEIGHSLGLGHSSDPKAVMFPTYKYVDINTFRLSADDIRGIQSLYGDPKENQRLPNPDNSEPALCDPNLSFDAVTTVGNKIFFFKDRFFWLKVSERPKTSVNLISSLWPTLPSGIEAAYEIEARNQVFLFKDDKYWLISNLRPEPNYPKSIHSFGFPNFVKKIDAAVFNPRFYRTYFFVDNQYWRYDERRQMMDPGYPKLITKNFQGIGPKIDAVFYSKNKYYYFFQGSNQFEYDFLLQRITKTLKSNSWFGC
Sequence of human MMP-9 (P14780 94-707): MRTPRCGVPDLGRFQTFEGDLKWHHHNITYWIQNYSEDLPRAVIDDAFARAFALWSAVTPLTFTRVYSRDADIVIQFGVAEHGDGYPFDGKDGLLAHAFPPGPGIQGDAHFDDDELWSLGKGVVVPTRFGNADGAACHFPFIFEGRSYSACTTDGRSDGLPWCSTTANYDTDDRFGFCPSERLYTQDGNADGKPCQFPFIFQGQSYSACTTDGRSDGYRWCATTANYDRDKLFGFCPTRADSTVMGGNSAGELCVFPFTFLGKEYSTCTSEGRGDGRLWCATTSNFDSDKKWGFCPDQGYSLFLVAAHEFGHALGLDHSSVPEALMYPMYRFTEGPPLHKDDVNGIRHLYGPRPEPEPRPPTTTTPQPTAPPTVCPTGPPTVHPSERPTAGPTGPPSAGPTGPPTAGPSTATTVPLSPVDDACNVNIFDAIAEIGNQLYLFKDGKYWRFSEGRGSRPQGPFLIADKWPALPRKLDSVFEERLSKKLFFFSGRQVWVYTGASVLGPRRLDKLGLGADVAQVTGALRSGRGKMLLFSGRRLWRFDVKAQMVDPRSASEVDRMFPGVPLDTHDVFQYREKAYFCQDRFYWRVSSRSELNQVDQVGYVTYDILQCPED
Sequence of rat MMP-9 (P50282 108-708): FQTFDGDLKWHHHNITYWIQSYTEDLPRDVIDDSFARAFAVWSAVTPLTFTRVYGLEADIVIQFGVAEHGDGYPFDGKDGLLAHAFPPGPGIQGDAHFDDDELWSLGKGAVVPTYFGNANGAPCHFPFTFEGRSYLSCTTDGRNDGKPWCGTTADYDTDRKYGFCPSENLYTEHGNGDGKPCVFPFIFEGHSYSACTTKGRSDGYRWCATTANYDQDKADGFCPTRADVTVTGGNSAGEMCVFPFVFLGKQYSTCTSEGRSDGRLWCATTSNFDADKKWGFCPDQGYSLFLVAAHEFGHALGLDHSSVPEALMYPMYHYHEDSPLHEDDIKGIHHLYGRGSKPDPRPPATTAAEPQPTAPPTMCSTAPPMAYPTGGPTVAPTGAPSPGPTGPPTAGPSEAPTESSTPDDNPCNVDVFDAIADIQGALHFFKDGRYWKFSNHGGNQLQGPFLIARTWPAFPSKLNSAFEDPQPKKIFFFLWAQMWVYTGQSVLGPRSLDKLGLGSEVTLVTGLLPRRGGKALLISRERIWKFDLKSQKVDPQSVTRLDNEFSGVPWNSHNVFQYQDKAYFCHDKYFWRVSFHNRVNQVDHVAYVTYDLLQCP
Sequence of rat MMP-12 (Q63341 102-465): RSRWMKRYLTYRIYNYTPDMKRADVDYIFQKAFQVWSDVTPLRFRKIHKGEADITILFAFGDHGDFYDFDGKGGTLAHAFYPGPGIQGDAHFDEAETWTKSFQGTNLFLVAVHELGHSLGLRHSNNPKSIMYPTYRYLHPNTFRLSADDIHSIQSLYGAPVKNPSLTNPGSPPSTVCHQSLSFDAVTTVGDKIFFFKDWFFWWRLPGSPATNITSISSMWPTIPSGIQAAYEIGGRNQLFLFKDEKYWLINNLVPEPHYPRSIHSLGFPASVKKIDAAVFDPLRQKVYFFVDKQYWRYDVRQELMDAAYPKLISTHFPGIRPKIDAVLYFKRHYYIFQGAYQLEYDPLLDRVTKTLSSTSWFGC
T1 sequence (P50282 108-708): as the sequence (P50282 108-708) above

As to `C[C@]1(CS(=O)(=O)N2CC=C(C#Cc3cnc(C4CC4)nc3)CC2)NC(=O)NC1=O` [AZD1236], on rat MMP-12, the “activity against rat MMP-12” value is “not active”. Further, the IC50 – broadly, the point on the concentration scale where inhibition reaches its midpoint – on human MMP-12 was found to be 6.1 nM; at human MMP-9, 4.5 nM. In addition, the “DC injury-induced increase in water content (FIG. 20)” value in the assay on DC injury is on record as “completely suppressed”. Besides, the “TNF-α, IL-1β and IL-6 production by LPS-activated microglia” value (from here on “TNF-α, IL-1β and IL-6 production”) in assay [1] (100 ng/ml) was “returning their concentrations to DMEM/F12-medium control levels”; in assay [1] (500 ng/ml) it was “completely suppressed the production of these cytokines”; in assay [1] (10-500 ng/ml) it was “dose-dependent decrease”. In addition, the “activity against rat MMP-9” value on rat MMP-9 was “not active”. Moreover, the “locomotor function, 24-h delayed treatment” value in assay [2] (optimal doses, 24 h delay vs immediate) is on record as “equally as effective as immediate delivery”. Besides, in assay [2] (oral), the “improvement in locomotor function” value is recorded as 85%. For the same compound, in assay [2] (oral, by 2 weeks after injury), the “mean error ratio, ladder crossing test” value is listed as “indistinguishable from sham-treated animals”.

In the case of `C[C@]1(CS(=O)(=O)N2CCC(Oc3ccc(Cl)cn3)CC2)NC(=O)NC1=O` [AZD3342, (5S)-5-[4-(5-chloro-pyridin-2-yloxy)-piperidine-1-sulfonylmethyl]-5-methylimidazolidine-2,4-dione], the IC50 at rat MMP-12 (read-out: IC50 against rat MMP-12) is 35 nM; on human MMP-12 it was 6 nM and 5.9 nM; against human MMP-9, 10 nM; on rat MMP-9 (read-out: IC50 against rat MMP-9) it was 117 nM. In the assay with DC injury, the “DC injury-induced increase in water content (FIG. 20)” value is “completely suppressed”. Besides, on MMP-9, the MMP-9 activity entry is “significantly suppresses”.

For the compound `CNC(=O)[C@H](Cc1c[nH]c2ccccc12)NC(=O)[C@@H](CC(=O)NO)CC(C)C` [GM6001, (2R)—N^4-Hydroxy-N^1-[(1S)-1-(1H-indol-3-ylmethyl)-2-(methylamino)-2-oxoethyl]-2-(2-methylpropyl)butanediamide, reference compound], the “TNF-α, IL-1β and IL-6 production” value in assay [1] (10-500 ng/ml) is listed as “marginal effects”.

For `CCN(CC)Cc1cc(C)c(N(Cc2ccccc2)S(=O)(=O)c2ccc(OC)cc2)c(C(=O)NO)c1` [MMP-9 Inhibitor I, reference compound], in assay [1] (10-500 ng/ml), the “TNF-α, IL-1β and IL-6 production” value is on record as “marginal effects”.

Consider `COCCN1CCC(C(=O)NO)(S(=O)(=O)c2ccc(Oc3ccc(OC(F)(F)F)cc3)cc2)CC1` [SD2590, N-Hydroxy-1-(2-methoxyethyl)-4-[4-[4-(trifluoromethoxy)phenoxy]phenyl]sulfonyl]-4-piperidinecarboxamide hydrochloride, reference compound], for which the “TNF-α, IL-1β and IL-6 production” value in assay [1] (10-500 ng/ml) was “marginal effects”.
